# Test results from patent publication US20250145594A1, “MODULATORS OF THE INTEGRATED STRESS PATHWAY” (Calico Life Sciences LLC, priority 2020, published 2025).
# Test system: ATF4 luciferase reporter in HEK293T cells
# Test: ATF4-Luc assay (in vitro model of VWMD)
# Assay type: cell-based, human
# Settings: Homo sapiens, HEK-293T, 7 h, HEK293T cells carrying the ATF4 luciferase reporter, 1 μg/mL tunicamycin, One Glo luminescence
# Outline: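 Stable HEK293T line expressing firefly luciferase behind the human ATF4 5′-UTR, treated with 1 μg/mL tunicamycin plus compound for 7 hours. Luminescence read with One Glo; EC50 determined.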
row,SMILES,EC50
1,"COc1cc2cn(C34CC(NC(=O)[C@H]5C[C@@H](O)c6cc(Cl)ccc6O5)(C3)C4)nc2cn1 [Compound 497, (2R,4R)-6-chloro-4-hydroxy-N-[3-(5-methoxy-2H-pyrazolo[3,4-c]pyridin-2-yl)bicyclo[1.1.1]pentan-1-yl]-3,4-dihydro-2H-1-benzopyran-2-carboxamide]",10 to 50 nM
2,"O=C(NC12CC(n3cc(C(=O)N4CCC(C(F)(F)F)C4)cn3)(C1)C2)[C@H]1C[C@@H](O)c2cc(Cl)ccc2O1 (stereo partly drawn) [Compound 535, (2R,4R)-6-chloro-4-hydroxy-N-(3-{4-[3-(trifluoromethyl)pyrrolidine-1-carbonyl]-1H-pyrazol-1-yl}bicyclo[1.1.1]pentan-1-yl)-3,4-dihydro-2H-1-benzopyran-2-carboxamide]",10 to 50 nM
3,"O=C(N[C@H]1CC[C@H](n2cc(OCCCC(F)(F)F)cn2)CC1)[C@H]1C[C@@H](O)c2cc(Cl)ccc2O1 [Compound 526, (2R,4R)-6-chloro-4-hydroxy-N-{(1r,4R)-4-[4-(4,4,4-trifluorobutoxy)-1H-pyrazol-1-yl]cyclohexyl}-3,4-dihydro-2H-1-benzopyran-2-carboxamide]",10 to 50 nM
4,"O=C(NC12CC(n3cc(-c4ccc(OC(F)(F)F)nc4)cn3)(C1)C2)[C@@H]1C[C@@H](O)c2cc(Cl)ccc2O1 [Compound 351, (2S,4R)-6-chloro-4-hydroxy-N-(3-{4-[6-(trifluoromethoxy)pyridin-3-yl]-1H-pyrazol-1-yl}bicyclo[1.1.1]pentan-1-yl)-3,4-dihydro-2H-1-benzopyran-2-carboxamide]",< 10 nM
5,"O=C(NC12CC(n3cc(C(=O)N4CC(COC(F)(F)F)C4)cn3)(C1)C2)[C@H]1C[C@@H](O)c2cc(Cl)ccc2O1 [Compound 329, (2R,4R)-6-chloro-4-hydroxy-N-[3-(4-{3-[(trifluoromethoxy)methyl]azetidine-1-carbonyl)-1H-pyrazol-1-yl}bicyclo[1.1.1]pentan-1-yl]-3,4-dihydro-2H-1-benzopyran-2-carboxamide]",< 10 nM
6,"O=C(NC12CC(n3cc([C@@H]4CC[C@H](OC(F)(F)F)C4)nn3)(C1)C2)[C@H]1C[C@@H](O)c2cc(Cl)ccc2O1 (mixture of isomers) [Compound 539, (2R,4R)-6-chloro-4-hydroxy-N-(3-{4-[(1RS,3SR)-3-(trifluoromethoxy)cyclopentyl]-1H-1,2,3-triazol-1-yl}bicyclo[1.1.1]pentan-1-yl)-3,4-dihydro-2H-1-benzopyran-2-carboxamide]",10 to 50 nM
7,"O=C(NC12CC(n3cc(-c4ccc(C(F)(F)F)cn4)cn3)(C1)C2)C1CNc2cc(Cl)c(F)cc2O1 (stereo not drawn) [Compound 574, 6-chloro-7-fluoro-N-(3-{4-[5-(trifluoromethyl)pyridin-2-yl]-1H-pyrazol-1-yl}bicyclo[1.1.1]pentan-1-yl)-3,4-dihydro-2H-1,4-benzoxazine-2-carboxamide]",< 10 nM
8,"O=C(N[C@H]1CC[C@H](n2cc(OCCOC(F)(F)F)cn2)CC1)[C@H]1C[C@@H](O)c2cc(Cl)c(Cl)cc2O1 [Compound 459, (2R,4R)-6,7-dichloro-4-hydroxy-N-[(1r,4R)-4-{4-[2-(trifluoromethoxy)ethoxy]-1H-pyrazol-1-yl}cyclohexyl]-3,4-dihydro-2H-1-benzopyran-2-carboxamide]",< 10 nM
9,"O=C(NC12CC(n3cc(N4CC(COC(F)(F)F)C4)cn3)(C1)C2)[C@H]1C[C@@H](O)c2cc(Cl)ccc2O1 [Compound 337, (2R,4R)-6-chloro-4-hydroxy-N-[3-(4-{3-[(trifluoromethoxy)methyl]azetidin-1-yl}-1H-pyrazol-1-yl)bicyclo[1.1.1]pentan-1-yl]-3,4-dihydro-2H-1-benzopyran-2-carboxamide]",10 to 50 nM
10,"O=C(CO[C@H]1C[C@@H](OC(F)(F)F)C1)NC12CC(NC(=O)[C@H]3C[C@@H](O)c4cc(Cl)ccc4O3)(C1)C2 [Compound 164, (2R,4R)-6-chloro-4-hydroxy-N-[3-(2-{[cis-3-(trifluoromethoxy)cyclobutyl]oxy}acetamido)bicyclo[1.1.1]pentan-1-yl]-3,4-dihydro-2H-1-benzopyran-2-carboxamide]",< 10 nM
11,"O=C(CO[C@H]1C[C@@H](OC(F)(F)F)C1)NC12CC(NC(=O)[C@H]3C[C@@H](O)c4cc(C(F)(F)F)ccc4O3)(C1)C2 [Compound 493, (2R,4R)-4-hydroxy-N-[3-(2-{[(1s,3S)-3-(trifluoromethoxy)cyclobutyl]oxy}acetamido)bicyclo[1.1.1]pentan-1-yl]-6-(trifluoromethyl)-3,4-dihydro-2H-1-benzopyran-2-carboxamide]",< 10 nM
12,"C[C@@H](COC(F)(F)F)Oc1cnn(C23CC(NC(=O)[C@H]4C[C@@H](O)c5cc(C(F)(F)F)ccc5O4)(C2)C3)c1 [Compound 441, (2R,4R)-4-hydroxy-N-[3-(4-{[(2S)-1-(trifluoromethoxy)propan-2-yl]oxy}-1H-pyrazol-1-yl)bicyclo[1.1.1]pentan-1-yl]-6-(trifluoromethyl)-3,4-dihydro-2H-1-benzopyran-2-carboxamide]",10 to 50 nM
13,"O=C(NC12CC(n3cc4cc(OC(F)F)ccc4n3)(C1)C2)[C@H]1C[C@@H](O)c2cc(Cl)ccc2O1 [Compound 502, (2R,4R)-6-chloro-N-{3-[5-(difluoromethoxy)-2H-indazol-2-yl]bicyclo[1.1.1]pentan-1-yl}-4-hydroxy-3,4-dihydro-2H-1-benzopyran-2-carboxamide]",50 to 250 nM
14,"O=C(NC12CC(n3cc(OCCOC(F)(F)F)cn3)(C1)C2)[C@H]1C[C@H](O)c2cc(Cl)ccc2O1 [Compound 632, (2R,4S)-6-chloro-4-hydroxy-N-(3-{4-[2-(trifluoromethoxy)ethoxy]-1H-pyrazol-1-yl}bicyclo[1.1.1]pentan-1-yl)-3,4-dihydro-2H-1-benzopyran-2-carboxamide]",10 to 50 nM
15,"O=C(NC12CC(n3cc(OCCOC(F)(F)F)cn3)(C1)C2)[C@H]1C[C@@H](O)c2cc(F)c(F)cc2O1 [Compound 429, (2R,4R)-6,7-difluoro-4-hydroxy-N-(3-{4-[2-(trifluoromethoxy)ethoxy]-1H-pyrazol-1-yl}bicyclo[1.1.1]pentan-1-yl)-3,4-dihydro-2H-1-benzopyran-2-carboxamide]",< 10 nM
16,"O=C(NC12CC(n3cc(-c4ccc(OC(F)(F)F)cn4)cn3)(C1)C2)[C@H]1C[C@@H](O)c2cc(Cl)c(F)cc2O1 [Compound 361, (2R,4R)-6-chloro-7-fluoro-4-hydroxy-N-(3-{4-[5-(trifluoromethoxy)pyridin-2-yl]-1H-pyrazol-1-yl}bicyclo[1.1.1]pentan-1-yl)-3,4-dihydro-2H-1-benzopyran-2-carboxamide]",< 10 nM
17,"O=C(NC12CC(c3cnc(OCCOC(F)(F)F)o3)(C1)C2)[C@H]1C[C@@H](O)c2cc(Cl)c(F)cc2O1 [Compound 416, (2R,4R)-6-chloro-7-fluoro-4-hydroxy-N-(3-{2-[2-(trifluoromethoxy)ethoxy]-1,3-oxazol-5-yl}bicyclo[1.1.1]pentan-1-yl)-3,4-dihydro-2H-1-benzopyran-2-carboxamide]",< 10 nM
18,"Cc1cc(C)cc(OCC2CN(C34CC(NC(=O)[C@H]5CC(=O)c6cc(Cl)ccc6O5)(C3)C4)C(=O)O2)c1 (stereo partly drawn) [Compound 100, (2R)-6-chloro-N-(3-{5-[(3,5-dimethylphenoxy)methyl]-2-oxo-1,3-oxazolidin-3-yl}bicyclo[1.1.1]pentan-1-yl)-4-oxo-3,4-dihydro-2H-1-benzopyran-2-carboxamide]",> 2000 nM
19,"O=C(NC12CC(n3cc([C@H]4[C@@H]5CN(CC(F)(F)F)C[C@@H]54)cn3)(C1)C2)[C@H]1C[C@@H](O)c2cc(Cl)ccc2O1 [Compound 583, (2R,4R)-6-chloro-4-hydroxy-N-(3-{4-[(1R,5S,6s)-3-(2,2,2-trifluoroethyl)-3-azabicyclo[3.1.0]hexan-6-yl]-1H-pyrazol-1-yl}bicyclo[1.1.1]pentan-1-yl)-3,4-dihydro-2H-1-benzopyran-2-carboxamide]",< 10 nM
20,"O=C(CO[C@H]1C[C@@H](OC(F)(F)F)C1)N[C@@H]1C[C@@H]2C[C@H]1C[C@H]2NC(=O)[C@H]1C[C@@H](O)c2cc(C(F)(F)F)c(F)cc2O1 [Compound 645, (2R,4R)-7-fluoro-4-hydroxy-N-[(1S,2R,4S,5R)-5-(2-{[(1s,3S)-3-(trifluoromethoxy)cyclobutyl]oxy}acetamido)bicyclo[2.2.1]heptan-2-yl]-6-(trifluoromethyl)-3,4-dihydro-2H-1-benzopyran-2-carboxamide]",< 10 nM
21,"O=C(CO[C@H]1C[C@@H](OC(F)(F)F)C1)NC12CC(NC(=O)[C@H]3C[C@H](O)c4cc(C(F)(F)F)c(F)cc4O3)(C1)C2 [Compound 643, (2R,4S)-7-fluoro-4-hydroxy-N-[3-(2-{[(1s,3S)-3-(trifluoromethoxy)cyclobutyl]oxy}acetamido)bicyclo[1.1.1]pentan-1-yl]-6-(trifluoromethyl)-3,4-dihydro-2H-1-benzopyran-2-carboxamide]",< 10 nM
22,"O=C(NC12CCC(n3cc(OCCCOC(F)(F)F)cn3)(C1)C2)[C@H]1C[C@@H](O)c2cc(Cl)c(F)cc2O1 [Compound 629, (2R,4R)-6-chloro-7-fluoro-4-hydroxy-N-(4-{4-[3-(trifluoromethoxy)propoxy]-1H-pyrazol-1-yl}bicyclo[2.1.1]hexan-1-yl)-3,4-dihydro-2H-1-benzopyran-2-carboxamide]",10 to 50 nM
23,"O=C(NC12CC(c3ccnc(-n4cc(C(F)(F)F)cn4)c3)(C1)C2)[C@H]1C[C@@H](O)c2cc(Cl)ccc2O1 [Compound 560, (2R,4R)-6-chloro-4-hydroxy-N-(3-{2-[4-(trifluoromethyl)-1H-pyrazol-1-yl]pyridin-4-yl}bicyclo[1.1.1]pentan-1-yl)-3,4-dihydro-2H-1-benzopyran-2-carboxamide]",10 to 50 nM
24,"COc1ccc2cn(C34CC(NC(=O)[C@H]5C[C@@H](O)c6cc(Cl)ccc6O5)(C3)C4)nc2c1 [Compound 500, (2R,4R)-6-chloro-4-hydroxy-N-[3-(6-methoxy-2H-indazol-2-yl)bicyclo[1.1.1]pentan-1-yl]-3,4-dihydro-2H-1-benzopyran-2-carboxamide]",10 to 50 nM
